Test [1] addresses Recombinant wild type LRRK2 protein (Homo sapiens (Human), UniProt Q5S007). Description: LRRK2 kinase activity, LanthaScreen TR-FRET assay (wild type). Format: biochemical. The conditions noted are these: LRRKtide 400 nM, 25 μM ATP, 60 min; read-out: LRRK2 WT IC50. An outline of the steps: (§1)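 Recombinant human wild-type or G2019S LRRK2 phosphorylated fluorescein-labelled LRRKtide (ERM-based) with ATP and serially diluted compound for 60 min at room temperature.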
(Time-resolved FRET reads energy transfer from a long-lived donor to a nearby acceptor.)

For test [2], the target named is Recombinant G2019S-LRRK2 protein (Homo sapiens (Human), UniProt Q5S007, G2019S). The experiment in a line: LRRK2 kinase activity, LanthaScreen TR-FRET assay (G2019S). Format: biochemical. The conditions noted are these: LRRKtide 400 nM, 25 μM ATP, 60 min. A digest of the protocol:
as §1

Structures are written as SMILES.

IC50 data for 35 compounds are collected here from US11427558B1, “Indazoles and azaindazoles as LRRK2 inhibitors” (ESCAPE Bio, Inc., priority 2019, dated 2022).

The term IC50 denotes the concentration at which inhibition is half-maximal.

Chain of Recombinant G2019S-LRRK2 protein (Q5S007 whole entry G2019S): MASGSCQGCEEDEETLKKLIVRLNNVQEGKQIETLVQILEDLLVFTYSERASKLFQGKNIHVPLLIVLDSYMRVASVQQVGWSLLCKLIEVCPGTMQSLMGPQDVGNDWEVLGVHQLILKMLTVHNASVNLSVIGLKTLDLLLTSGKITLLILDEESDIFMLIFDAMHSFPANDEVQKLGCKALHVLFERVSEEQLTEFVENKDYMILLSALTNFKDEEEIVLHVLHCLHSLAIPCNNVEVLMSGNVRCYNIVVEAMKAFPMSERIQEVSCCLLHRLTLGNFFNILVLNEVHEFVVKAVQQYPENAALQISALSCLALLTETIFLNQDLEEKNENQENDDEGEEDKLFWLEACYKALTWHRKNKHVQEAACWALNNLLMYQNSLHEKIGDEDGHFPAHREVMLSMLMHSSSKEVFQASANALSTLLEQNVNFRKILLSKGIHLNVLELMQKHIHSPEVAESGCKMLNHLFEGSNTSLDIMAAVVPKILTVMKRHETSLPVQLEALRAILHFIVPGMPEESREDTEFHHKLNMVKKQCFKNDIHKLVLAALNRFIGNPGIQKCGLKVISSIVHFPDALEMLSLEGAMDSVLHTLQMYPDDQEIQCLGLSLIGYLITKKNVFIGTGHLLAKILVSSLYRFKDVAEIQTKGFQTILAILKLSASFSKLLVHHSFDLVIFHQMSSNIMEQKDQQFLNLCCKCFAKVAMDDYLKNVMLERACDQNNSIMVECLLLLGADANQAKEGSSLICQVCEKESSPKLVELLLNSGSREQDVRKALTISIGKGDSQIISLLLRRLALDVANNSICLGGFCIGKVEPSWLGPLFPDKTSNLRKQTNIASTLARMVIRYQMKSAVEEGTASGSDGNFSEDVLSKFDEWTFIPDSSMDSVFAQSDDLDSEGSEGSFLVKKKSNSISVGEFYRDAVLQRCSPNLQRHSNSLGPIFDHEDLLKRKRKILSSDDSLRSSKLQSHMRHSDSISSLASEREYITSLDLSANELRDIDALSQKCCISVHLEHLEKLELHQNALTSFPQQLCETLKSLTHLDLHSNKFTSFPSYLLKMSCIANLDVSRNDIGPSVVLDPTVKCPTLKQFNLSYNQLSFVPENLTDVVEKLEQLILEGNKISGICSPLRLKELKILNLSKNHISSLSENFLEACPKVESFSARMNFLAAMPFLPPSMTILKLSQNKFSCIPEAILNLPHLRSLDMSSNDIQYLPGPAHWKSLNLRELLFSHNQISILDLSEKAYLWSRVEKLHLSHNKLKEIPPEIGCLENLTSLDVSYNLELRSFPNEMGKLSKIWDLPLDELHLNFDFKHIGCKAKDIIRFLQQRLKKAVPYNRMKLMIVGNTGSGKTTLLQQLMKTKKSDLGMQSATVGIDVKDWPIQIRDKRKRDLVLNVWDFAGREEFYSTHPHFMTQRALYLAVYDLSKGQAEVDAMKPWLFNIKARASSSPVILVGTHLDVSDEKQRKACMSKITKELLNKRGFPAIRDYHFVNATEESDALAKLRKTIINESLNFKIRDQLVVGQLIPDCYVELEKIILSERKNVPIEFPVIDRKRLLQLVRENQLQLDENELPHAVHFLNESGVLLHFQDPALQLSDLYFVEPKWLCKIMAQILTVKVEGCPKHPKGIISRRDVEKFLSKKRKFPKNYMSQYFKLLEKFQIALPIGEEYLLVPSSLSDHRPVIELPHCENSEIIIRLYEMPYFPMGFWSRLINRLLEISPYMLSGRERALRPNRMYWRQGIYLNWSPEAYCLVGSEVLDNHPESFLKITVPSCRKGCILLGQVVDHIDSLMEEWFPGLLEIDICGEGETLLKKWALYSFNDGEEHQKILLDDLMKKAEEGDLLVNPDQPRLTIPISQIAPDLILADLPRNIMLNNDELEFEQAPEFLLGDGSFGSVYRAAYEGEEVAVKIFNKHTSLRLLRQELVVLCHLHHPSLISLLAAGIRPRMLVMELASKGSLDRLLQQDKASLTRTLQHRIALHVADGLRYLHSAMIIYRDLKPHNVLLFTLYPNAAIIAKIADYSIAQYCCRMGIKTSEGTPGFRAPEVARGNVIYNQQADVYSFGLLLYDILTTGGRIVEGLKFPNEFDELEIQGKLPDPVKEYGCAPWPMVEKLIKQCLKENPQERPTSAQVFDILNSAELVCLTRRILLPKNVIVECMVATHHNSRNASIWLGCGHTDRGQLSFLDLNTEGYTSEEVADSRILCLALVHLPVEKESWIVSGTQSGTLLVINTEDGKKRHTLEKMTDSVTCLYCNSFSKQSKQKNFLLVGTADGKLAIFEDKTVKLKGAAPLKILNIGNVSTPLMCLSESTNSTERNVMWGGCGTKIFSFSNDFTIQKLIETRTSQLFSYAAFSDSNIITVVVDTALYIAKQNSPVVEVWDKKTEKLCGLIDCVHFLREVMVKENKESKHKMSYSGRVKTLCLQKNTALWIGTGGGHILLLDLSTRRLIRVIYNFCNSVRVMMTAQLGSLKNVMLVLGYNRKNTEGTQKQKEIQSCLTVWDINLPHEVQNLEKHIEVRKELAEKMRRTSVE
Chain of Recombinant wild type LRRK2 protein (Q5S007 whole entry): as the sequence (Q5S007 whole entry G2019S) above, with S2019G counted along it

With `Cc1cc(C#N)cnc1C(=O)Nc1cc(F)c2[nH]nc(-c3ccoc3)c2c1` [Example 143, 5-Cyano-N-(7-fluoro-3-(furan-3-yl)-1H-indazol-5-yl)-3-methylpicolinamide], the IC50 in test [1] is 0.1 to 1 µM; in test [2] it was less than 0.1 µM.

With `N#Cc1cncc(C(=O)Nc2ccc3[nH]nc(-c4ccncc4)c3c2)c1` [Example 24, 5-Cyano-N-(3-(pyridin-4-yl)-1H-indazol-5-yl)nicotinamide], the IC50 in test [1] and in test [2] was 0.1 to 1 µM in each case.

As for `Cc1cc(F)cc(-c2n[nH]c3ccc(NC(=O)c4ncc(C#N)cc4C)cc23)c1` [Example 61, 5-Cyano-N-(3-(3-fluoro-5-methylphenyl)-1H-indazol-5-yl)-3-methylpicolinamide], the IC50 in test [1] is 0.1 to 1 µM; in test [2], less than 0.1 µM.

Regarding `Cc1c(C#N)cnc(C(=O)Nc2ccc3[nH]nc(-c4ccn(C(F)F)n4)c3c2)c1C` [Example 204, 5-Cyano-N-(3-(1-(difluoromethyl)-1H-pyrazol-3-yl)-1H-indazol-5-yl)-3,4-dimethylpicolinamide], the IC50 in test [1] is 0.1 to 1 µM; in test [2], less than 0.1 µM.

For `Cc1cc(C#N)cnc1C(=O)Nc1ccc2[nH]nc(-c3ccn(C)n3)c2c1` [Example 153, 5-Cyano-3-methyl-N-(3-(1-methyl-1H-pyrazol-3-yl)-1H-indazol-5-yl)picolinamide], the IC50 lay in the range of 1 to 10 µM in test [1] and 0.1 to 1 µM in test [2].

Consider `N#Cc1ccc(O)c(C(=O)Nc2ccc3[nH]nc(-c4ccoc4)c3c2)c1` [Example 125, 5-Cyano-N-(3-(furan-3-yl)-1H-indazol-5-yl)-2-hydroxybenzamide], for which the IC50 in test [1] and in test [2] was 0.1 to 1 µM in each case.

Take `N#Cc1cc(C(=O)Nc2ccc3[nH]nc(-c4ccncc4)c3c2)ccn1` [Example 22, 2-Cyano-N-(3-(pyridin-4-yl)-1H-indazol-5-yl)isonicotinamide]: the IC50 in test [1] and in test [2] was less than 0.1 µM throughout.

`N#Cc1ncc(C(=O)Nc2ccc3[nH]nc(-c4ccoc4)c3c2)s1` [Example 20, 2-Cyano-N-(3-(furan-3-yl)-1H-indazol-5-yl)thiazole-5-carboxamide]: the results for the IC50 in test [1] and in test [2] were 0.1 to 1 µM and less than 0.1 µM, respectively.

As for `Cc1ccc(C#N)cc1C(=O)Nc1ccc2[nH]nc(-c3ccoc3)c2c1` [Example 17, 5-Cyano-N-(3-(furan-3-yl)-1H-indazol-5-yl)-2-methylbenzamide], the IC50 in test [1] and in test [2] was less than 0.1 µM in each case.

For `Cc1c(Cl)c(C(=O)Nc2ccc3[nH]nc(C4CC4)c3c2)nc(Cl)c1C#N` [Example 331, 3,6-Dichloro-5-cyano-N-(3-cyclopropyl-1H-indazol-5-yl)-4-methylpicolinamide], the IC50 in test [1] and in test [2] was less than 0.1 µM each time.

Regarding `Cc1cc(C#N)c(C)nc1C(=O)Nc1ccc2[nH]nc(-c3ccoc3)c2c1` [Example 44, 5-Cyano-N-(3-(furan-3-yl)-1H-indazol-5-yl)-3,6-dimethylpicolinamide], the IC50 in test [1] and in test [2] was less than 0.1 µM each time.

Consider `Cc1cc(C#N)cnc1C(=O)Nc1ccc2[nH]nc(-c3cncc(N4CCOCC4)c3)c2c1` [Example 37, 5-Cyano-3-methyl-N-(3-(5-morpholinopyridin-3-yl)-1H-indazol-5-yl)picolinamide], for which the results for the IC50 in test [1] and in test [2] were 0.1 to 1 µM and less than 0.1 µM, respectively.

Regarding `CCc1c(C#N)ccc(F)c1C(=O)Nc1ccc2[nH]nc(-c3cnco3)c2c1` [Example 231, 3-Cyano-2-ethyl-6-fluoro-N-(3-(oxazol-5-yl)-1H-indazol-5-yl)benzamide], the IC50 in test [1] and in test [2] was less than 0.1 µM each time.

Consider `Cc1c(C(=O)Nc2ccc3[nH]nc(Cl)c3c2)nc(Cl)c(C#N)c1C` [Example 320, 6-Chloro-N-(3-chloro-1H-indazol-5-yl)-5-cyano-3,4-dimethylpicolinamide], for which the IC50 in test [1] and in test [2] was less than 0.1 µM in each case.

Take `CC(C)=Cc1n[nH]c2ccc(NC(=O)c3ncc(C#N)c(C)c3C)cc12` [Example 243, 5-Cyano-3,4-dimethyl-N-(3-(2-methylprop-1-en-1-yl)-1H-indazol-5-yl)picolinamide]: the IC50 in test [1] was 0.1 to 1 µM; in test [2] it was less than 0.1 µM.

For the compound `N#Cc1cnc(C(=O)Nc2ccc3[nH]nc(-c4ccoc4)c3c2)cc1Cl` [Example 66, 4-Chloro-5-cyano-N-(3-(furan-3-yl)-1H-indazol-5-yl)picolinamide], the IC50 in test [1] and in test [2] was 0.1 to 1 µM in each case.

Regarding `N#Cc1cccc(C(=O)Nc2ccc3[nH]nc(-c4cnco4)c3c2)c1OC(F)(F)F` [Example 212, 3-Cyano-N-(3-(oxazol-5-yl)-1H-indazol-5-yl)-2-(trifluoromethoxy)benzamide], the IC50 in test [1] and in test [2] was less than 0.1 µM in each case.

For the compound `Cc1c(C(=O)Nc2ccc3[nH]nc(S(C)(=O)=O)c3c2)nc(Cl)c(C#N)c1C` [Example 296, 6-Chloro-5-cyano-3,4-dimethyl-N-(3-(methylsulfonyl)-1H-indazol-5-yl)picolinamide], the IC50 in test [1] is 0.1 to 1 µM; in test [2], less than 0.1 µM.

Turning to `Cc1cccc(-c2n[nH]c3ccc(NC(=O)c4ncc(C#N)c(C)c4C)cc23)n1` [Example 182, 5-Cyano-3,4-dimethyl-N-(3-(6-methylpyridin-2-yl)-1H-indazol-5-yl)picolinamide], the results for the IC50 in test [1] and in test [2] were 0.1 to 1 µM and less than 0.1 µM, respectively.

With `C=C(C)c1n[nH]c2ccc(NC(=O)c3ncc(C#N)c(C)c3C)cc12` [Example 267, 5-Cyano-3,4-dimethyl-N-(3-(prop-1-en-2-yl)-1H-indazol-5-yl)picolinamide], the IC50 is 0.1 to 1 µM in test [1] and less than 0.1 µM in test [2].

For `Cc1ncc(-c2n[nH]c3ccc(NC(=O)c4ncc(C#N)c(C)c4C)cc23)o1` [Example 174, 5-Cyano-3,4-dimethyl-N-(3-(2-methyloxazol-5-yl)-1H-indazol-5-yl)picolinamide], the IC50 in test [1] and in test [2] was less than 0.1 µM in each case.

As for `Cc1cc(C#N)cnc1C(=O)Nc1ccc2[nH]nc(-c3ccco3)c2c1` [Example 29, 5-Cyano-N-(3-(furan-2-yl)-1H-indazol-5-yl)-3-methylpicolinamide], the IC50 in test [1] was 0.1 to 1 µM; in test [2] it was less than 0.1 µM.

`Cc1c(C#N)nn(C)c1C(=O)Nc1ccc2[nH]nc(-c3cnco3)c2c1` [Example 239, 3-Cyano-1,4-dimethyl-N-(3-(oxazol-5-yl)-1H-indazol-5-yl)-1H-pyrazole-5-carboxamide]: the IC50 is less than 0.1 µM in test [1] and 0.1 to 1 µM in test [2].

As to `COc1cc(C#N)cc(C)c1C(=O)Nc1ccc2[nH]nc(-c3cnn(C(F)F)c3)c2c1` [Example 201, 4-Cyano-N-(3-(1-(difluoromethyl)-1H-pyrazol-4-yl)-1H-indazol-5-yl)-2-methoxy-6-methylbenzamide], the IC50 in test [1] and in test [2] was less than 0.1 µM in each case.

As to `N#Cc1ccnc(C(=O)Nc2ccc3[nH]nc(-c4ccoc4)c3c2)c1F` [Example 79, 4-Cyano-3-fluoro-N-(3-(furan-3-yl)-1H-indazol-5-yl)picolinamide], the IC50 in test [1] and in test [2] was 0.1 to 1 µM each time.

Turning to `Cc1cc(C#N)cnc1C(=O)Nc1ccc2[nH]nc(-c3ccno3)c2c1` [Example 101, 5-Cyano-N-(3-(isoxazol-5-yl)-1H-indazol-5-yl)-3-methylpicolinamide], the figures for the IC50 in test [1] and in test [2] were 0.1 to 1 µM and less than 0.1 µM, respectively.

In the case of `Cc1c(C#N)cnc(C(=O)Nc2ccc3[nH]nc(-c4cn[nH]c4)c3c2)c1C` [Example 183, N-(3-(1H-Pyrazol-4-yl)-1H-indazol-5-yl)-5-cyano-3,4-dimethylpicolinamide], the IC50 in test [1] and in test [2] was less than 0.1 µM in each case.

Take `Cc1c(C(=O)Nc2ccc3[nH]nc(C4CC4)c3c2)nc(Cl)c(C#N)c1C` [Example 303, 6-Chloro-5-cyano-N-(3-cyclopropyl-1H-indazol-5-yl)-3,4-dimethylpicolinamide]: the IC50 in test [1] and in test [2] was less than 0.1 µM each time.

As to `Cn1c(C#N)cnc1C(=O)Nc1ccc2[nH]nc(-c3ccoc3)c2c1` [Example 96, 5-Cyano-N-(3-(furan-3-yl)-1H-indazol-5-yl)-1-methyl-1H-imidazole-2-carboxamide], the IC50 in test [1] and in test [2] was 0.1 to 1 µM throughout.

In the case of `Cc1cc(-c2n[nH]c3ccc(NC(=O)c4ncc(C#N)cc4C)cc23)ccc1F` [Example 51, 5-Cyano-N-(3-(4-fluoro-3-methylphenyl)-1H-indazol-5-yl)-3-methylpicolinamide], the IC50 in test [1] is 0.1 to 1 µM; in test [2], less than 0.1 µM.

Take `Cc1c(C(=O)Nc2ccc3[nH]nc(-c4ccoc4)c3c2)noc1C#N` [Example 179, 5-Cyano-N-(3-(furan-3-yl)-1H-indazol-5-yl)-4-methylisoxazole-3-carboxamide]: the IC50 in test [1] and in test [2] was less than 0.1 µM in each case.

Consider `N#Cc1ccc(C(=O)Nc2ccc3[nH]nc(-c4ccoc4)c3c2)c(O)c1` [Example 107, 4-Cyano-N-(3-(furan-3-yl)-1H-indazol-5-yl)-2-hydroxybenzamide], for which the IC50 in test [1] and in test [2] was 0.1 to 1 µM throughout.

Turning to `N#Cc1ccc(F)c(C(=O)Nc2ccc3[nH]nc(-c4ccoc4)c3c2)c1` [Example 122, 5-Cyano-2-fluoro-N-(3-(furan-3-yl)-1H-indazol-5-yl)benzamide], the IC50 in test [1] and in test [2] was less than 0.1 µM each time.

For `Cc1c(C#N)cnc(C(=O)Nc2ccc3[nH]nc(-c4ccoc4)c3c2)c1C` [Example 67, 5-Cyano-N-(3-(furan-3-yl)-1H-indazol-5-yl)-3,4-dimethylpicolinamide], the IC50 in test [1] and in test [2] was less than 0.1 µM throughout.

`Cc1nc(C(=O)Nc2ccc3[nH]nc(-c4cnoc4)c3c2)c(C)c(C)c1C#N` [Example 210, 5-Cyano-N-(3-(isoxazol-4-yl)-1H-indazol-5-yl)-3,4,6-trimethylpicolinamide]: the IC50 in test [1] and in test [2] was less than 0.1 µM in each case.
